Assay results as given in ChEMBL document CHEMBL5338715, “Identification of (S)-1-(2-(2,4-difluorophenyl)-4-oxothiazolidin-3-yl)-3-(4-((7-(3-(4-ethylpiperazin-1-yl)propoxy)-6-methoxyquinolin-4-yl)oxy)-3,5-difluorophenyl)urea as a potential anti-colorectal cancer agent” (Eur J Med Chem, 2022).

Tests used:
BaF3 [1] = experiment: cells; settings: Mus musculus, BaF3, 72 h
BaF3 [2] = experiment: cells; settings: Mus musculus, BaF3, 72 h; remark: listed apart in the source
HT-29 = experiment: cells; settings: Homo sapiens
HCT-116 = experiment: cells; settings: Homo sapiens
COLO 205 = experiment: cells; settings: Homo sapiens
LoVo = experiment: cells; settings: Homo sapiens
[3] = Cytotoxicity against human FHC cells assessed as cell growth inhibition by MTT assay; type: toxicity, cell-based
[4] = Metabolic stability in human liver microsomes assessed as half life at 1 uM measured upto 45 mins in presence of NADPH by LC-MS/MS analysis; type: ADME, Microsome
[5] = Metabolic stability in human liver microsomes assessed as intrinsic clearance at 1 uM measured upto 45 mins in presence of NADPH by LC-MS/MS analysis; type: ADME, Microsome; settings: read-out: CLH
[6] = Metabolic stability in human liver microsomes assessed as parent compound remaining at 1 uM measured after 45 mins in presence of NADPH by LC-MS/MS analysis; type: ADME, Microsome; settings: read-out: Stability
EBC-1 = experiment: cells; settings: Homo sapiens
cells = settings: Homo sapiens, TT
SNU-5 = experiment: cells; settings: Homo sapiens
MKN-45 = experiment: cells; settings: Homo sapiens
[7] = molecular target: T1, Tyrosine-protein kinase ABL1 (Homo sapiens, UniProt P00519); experiment: Inhibition of ABL (unknown origin) assessed as residual activity at 1 uM by kinome scan assay relative to control
T1 sequence (P00519 whole entry): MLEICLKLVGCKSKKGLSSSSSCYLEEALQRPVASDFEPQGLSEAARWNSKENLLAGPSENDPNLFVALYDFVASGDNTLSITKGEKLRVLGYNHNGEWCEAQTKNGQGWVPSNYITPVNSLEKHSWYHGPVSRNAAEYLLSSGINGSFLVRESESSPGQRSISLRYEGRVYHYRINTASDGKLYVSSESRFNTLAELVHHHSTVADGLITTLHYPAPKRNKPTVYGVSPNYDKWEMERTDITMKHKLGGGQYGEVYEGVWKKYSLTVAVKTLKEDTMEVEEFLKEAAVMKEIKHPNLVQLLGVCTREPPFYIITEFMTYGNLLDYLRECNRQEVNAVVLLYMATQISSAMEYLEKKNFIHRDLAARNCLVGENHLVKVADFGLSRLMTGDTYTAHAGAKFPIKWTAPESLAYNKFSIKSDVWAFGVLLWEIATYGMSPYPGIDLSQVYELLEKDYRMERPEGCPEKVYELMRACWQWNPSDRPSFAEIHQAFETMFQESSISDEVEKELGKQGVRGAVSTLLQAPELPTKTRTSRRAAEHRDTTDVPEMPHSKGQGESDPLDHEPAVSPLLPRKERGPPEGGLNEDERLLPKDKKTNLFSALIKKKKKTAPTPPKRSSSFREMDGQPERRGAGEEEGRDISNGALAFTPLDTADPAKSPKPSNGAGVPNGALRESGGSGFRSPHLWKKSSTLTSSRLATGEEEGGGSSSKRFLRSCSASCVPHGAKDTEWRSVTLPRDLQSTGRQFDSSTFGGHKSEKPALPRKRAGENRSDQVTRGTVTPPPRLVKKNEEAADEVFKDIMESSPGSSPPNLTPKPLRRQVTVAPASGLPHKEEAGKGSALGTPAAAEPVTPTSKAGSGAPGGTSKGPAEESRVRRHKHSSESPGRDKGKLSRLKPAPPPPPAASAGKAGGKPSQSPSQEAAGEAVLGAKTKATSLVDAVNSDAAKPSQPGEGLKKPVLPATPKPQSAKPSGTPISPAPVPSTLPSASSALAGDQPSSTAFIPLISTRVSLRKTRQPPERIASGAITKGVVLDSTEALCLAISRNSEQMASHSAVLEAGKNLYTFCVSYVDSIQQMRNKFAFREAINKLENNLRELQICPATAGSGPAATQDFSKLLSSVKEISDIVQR

[8] = molecular target: T2, Proto-oncogene tyrosine-protein kinase receptor Ret (Homo sapiens, UniProt P07949); experiment: Inhibition of RET (unknown origin) assessed as residual activity at 1 uM by kinome scan assay relative to control
T2 sequence (P07949 whole entry): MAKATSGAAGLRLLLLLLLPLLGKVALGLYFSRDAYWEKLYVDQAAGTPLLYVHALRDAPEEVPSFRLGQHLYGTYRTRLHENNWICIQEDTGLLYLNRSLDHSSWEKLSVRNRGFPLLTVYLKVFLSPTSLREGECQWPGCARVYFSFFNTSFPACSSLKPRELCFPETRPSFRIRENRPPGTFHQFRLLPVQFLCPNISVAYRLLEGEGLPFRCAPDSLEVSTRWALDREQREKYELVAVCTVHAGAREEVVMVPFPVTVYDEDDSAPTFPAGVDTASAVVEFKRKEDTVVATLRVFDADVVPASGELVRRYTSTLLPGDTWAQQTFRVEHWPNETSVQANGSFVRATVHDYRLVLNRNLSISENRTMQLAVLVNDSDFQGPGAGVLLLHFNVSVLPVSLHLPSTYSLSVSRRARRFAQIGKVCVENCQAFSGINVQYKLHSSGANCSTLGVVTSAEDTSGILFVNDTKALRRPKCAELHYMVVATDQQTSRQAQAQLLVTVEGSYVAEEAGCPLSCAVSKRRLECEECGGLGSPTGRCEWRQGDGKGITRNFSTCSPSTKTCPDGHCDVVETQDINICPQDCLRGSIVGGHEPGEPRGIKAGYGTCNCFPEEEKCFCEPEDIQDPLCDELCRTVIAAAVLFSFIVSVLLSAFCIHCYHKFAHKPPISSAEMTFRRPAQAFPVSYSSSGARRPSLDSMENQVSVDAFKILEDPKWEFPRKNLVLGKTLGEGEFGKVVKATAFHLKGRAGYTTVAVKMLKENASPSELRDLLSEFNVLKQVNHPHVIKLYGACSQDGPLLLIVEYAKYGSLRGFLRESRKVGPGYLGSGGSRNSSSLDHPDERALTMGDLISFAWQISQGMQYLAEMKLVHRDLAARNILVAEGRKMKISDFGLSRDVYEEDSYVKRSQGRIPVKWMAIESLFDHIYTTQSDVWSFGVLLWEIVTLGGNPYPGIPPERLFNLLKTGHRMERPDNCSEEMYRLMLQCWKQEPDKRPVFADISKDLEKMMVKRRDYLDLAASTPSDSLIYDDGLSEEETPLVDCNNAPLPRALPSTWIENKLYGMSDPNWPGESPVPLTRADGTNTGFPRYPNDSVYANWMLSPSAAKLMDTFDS

[9] = molecular target: Platelet-derived growth factor receptor beta (Homo sapiens) (UniProt P09619); experiment: Inhibition of PDGFRbeta (unknown origin) assessed as residual activity at 1 uM by kinome scan assay relative to control
Chain of Platelet-derived growth factor receptor beta (Homo sapiens) (P09619 whole entry): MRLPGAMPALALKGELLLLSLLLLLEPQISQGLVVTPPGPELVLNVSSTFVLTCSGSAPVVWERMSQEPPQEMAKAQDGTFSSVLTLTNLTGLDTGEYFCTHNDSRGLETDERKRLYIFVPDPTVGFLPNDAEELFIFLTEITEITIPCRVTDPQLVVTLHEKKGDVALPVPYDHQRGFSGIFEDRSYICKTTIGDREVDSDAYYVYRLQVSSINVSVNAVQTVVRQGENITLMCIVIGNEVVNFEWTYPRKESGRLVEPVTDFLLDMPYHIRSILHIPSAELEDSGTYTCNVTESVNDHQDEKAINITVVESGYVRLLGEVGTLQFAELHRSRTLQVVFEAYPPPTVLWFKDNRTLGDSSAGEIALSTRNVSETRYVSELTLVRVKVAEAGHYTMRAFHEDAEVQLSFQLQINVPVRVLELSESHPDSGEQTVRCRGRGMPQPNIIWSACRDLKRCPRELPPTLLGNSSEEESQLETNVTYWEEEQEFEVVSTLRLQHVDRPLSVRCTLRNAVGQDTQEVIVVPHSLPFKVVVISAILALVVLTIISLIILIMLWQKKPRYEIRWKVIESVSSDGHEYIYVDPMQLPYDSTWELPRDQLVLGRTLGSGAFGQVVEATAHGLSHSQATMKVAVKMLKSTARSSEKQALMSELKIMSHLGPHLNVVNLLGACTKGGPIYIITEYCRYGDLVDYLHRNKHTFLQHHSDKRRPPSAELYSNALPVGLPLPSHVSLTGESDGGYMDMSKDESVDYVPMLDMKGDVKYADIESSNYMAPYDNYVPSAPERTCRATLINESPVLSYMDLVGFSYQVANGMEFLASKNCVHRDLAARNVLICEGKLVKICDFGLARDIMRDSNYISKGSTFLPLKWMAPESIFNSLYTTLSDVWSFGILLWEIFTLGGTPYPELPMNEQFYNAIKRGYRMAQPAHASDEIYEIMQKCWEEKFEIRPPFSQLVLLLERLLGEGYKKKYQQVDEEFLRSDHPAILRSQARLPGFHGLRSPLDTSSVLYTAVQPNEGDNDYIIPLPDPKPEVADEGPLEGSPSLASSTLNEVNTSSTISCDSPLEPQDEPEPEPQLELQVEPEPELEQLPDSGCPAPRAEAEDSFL

[10] = molecular target: T1, Tyrosine-protein kinase ABL1; experiment: Inhibition of ABL (unknown origin) by kinome scan assay
[11] = molecular target: T2, Proto-oncogene tyrosine-protein kinase receptor Ret; experiment: Inhibition of RET (unknown origin) by kinome scan assay
NCI-H1993 = experiment: cells; settings: Homo sapiens

CCN1CCN(CCCOc2cc3nccc(Oc4c(F)cc(NC(=O)NN5C(=O)CSC5c5ccc(F)cc5)cc4F)c3cc2OC)CC1 (stereo not given)
IC50 (BaF3 [1]): 71 nM
IC50 (BaF3 [2]): 140 nM
IC50 (HT-29): 520 nM
IC50 (HCT-116): 200 nM

CNC(=O)c1c(C)oc2cc(Oc3ncnc4cc(OC)c(OC)cc34)ccc12 [FRUQUINTINIB]
IC50 (HT-29): 1500 nM
IC50 (HCT-116): 800 nM
IC50 (COLO 205): > 10000 nM
IC50 (LoVo): > 10000 nM

CCN1CCN(CCCOc2cc3nccc(Oc4c(F)cc(NC(=O)NN5C(=O)CS[C@@H]5c5ccc(F)cc5F)cc4F)c3cc2OC)CC1
IC50 [3]: 4.5 µM
half-life at 1 µM [4]: 155 min
IC50 (COLO 205): 63 nM

CCN1CCN(CCCOc2cc3nccc(Oc4c(F)cc(NC(=O)NN5C(=O)CSC5c5c(F)cccc5F)cc4F)c3cc2OC)CC1 (stereo not given)
IC50 [3]: > 10 µM
half-life at 1 µM [4]: 87.9 min
CLint scaled at 1 µM [5]: 19.8 mL/min/kg
remaining at 0.75 h, 1 µM [6]: 70.1%
IC50 (BaF3 [1]): 45 nM
IC50 (BaF3 [2]): 76 nM
IC50 (HT-29): 69 nM
IC50 (HCT-116): 540 nM
IC50 (EBC-1): 160 nM
IC50 (COLO 205): 48 nM
IC50 (LoVo): 930 nM
IC50 (cells): 2300 nM
IC50 (SNU-5): 270 nM
IC50 (MKN-45): 610 nM

CCN(CC)CCCOc1cc2nccc(Oc3ccc(C(=O)NN4C(=O)CSC4c4c(F)cccc4F)cc3)c2cc1OC (stereo not given)
IC50 (BaF3 [1]): 330 nM
IC50 (BaF3 [2]): 930 nM
IC50 (HT-29): 680 nM
IC50 (HCT-116): 3200 nM

CCN1CCN(CCCOc2cc3nccc(Oc4ccc(NC(=O)NN5C(=O)CSC5c5c(F)cccc5F)cc4)c3cc2OC)CC1 (stereo not given)
IC50 (BaF3 [1]): 59 nM
IC50 (BaF3 [2]): 130 nM
IC50 (HT-29): 220 nM
IC50 (HCT-116): 110 nM

CCN(CC)CCCOc1cc2nccc(Oc3ccc(NC(=O)NN4C(=O)CSC4c4c(F)cccc4F)cc3C)c2cc1OC (stereo not given)
IC50 (BaF3 [1]): 460 nM
IC50 (BaF3 [2]): 840 nM
IC50 (HT-29): 220 nM
IC50 (HCT-116): 640 nM

CCN(CC)CCCOc1cc2nc(N)cc(Oc3ccc(NC(=O)NN4C(=O)CSC4c4c(F)cccc4F)cc3)c2cc1OC (stereo not given)
IC50 (BaF3 [1]): 3300 nM
IC50 (BaF3 [2]): > 10000 nM

CCN1CCN(CCCOc2cc3nccc(Oc4c(F)cc(NC(=O)NN5C(=O)CSC5c5ccc(F)cc5F)cc4F)c3cc2OC)CC1 (racemic)
IC50 [3]: 4.2 µM
half-life at 1 µM [4]: 162 min
CLint scaled at 1 µM [5]: 10.7 mL/min/kg
remaining at 0.75 h, 1 µM [6]: 82%
Activity [7]: 0.25%
Activity [8]: 0.25%
Activity [9]: 0.1%
IC50 [10]: 145 nM
IC50 [11]: 27.9 nM
IC50 (BaF3 [1]): 57 nM
IC50 (HT-29): 530 nM
IC50 (HCT-116): 98 nM
IC50 (EBC-1): 150 nM
IC50 (NCI-H1993): 1500 nM
IC50 (COLO 205): 35 nM
IC50 (LoVo): 1600 nM
IC50 (cells): 780 nM
IC50 (SNU-5): 170 nM
IC50 (MKN-45): 380 nM

CCN(CC)CCCOc1cc2nccc(N(C)c3ccc(NC(=O)NN4C(=O)CSC4c4c(F)cccc4F)cc3)c2cc1OC (stereo not given)
IC50 (BaF3 [1]): 2200 nM
IC50 (BaF3 [2]): 6900 nM
IC50 (HCT-116): > 10000 nM

CCN(CC)CCCOc1cc2nccc(Oc3ccc(NC(=O)NN4C(=O)CSC4c4c(F)cccc4F)cc3)c2cc1OC (stereo not given)
IC50 (BaF3 [1]): 58 nM
IC50 (BaF3 [2]): 120 nM
IC50 (HT-29): 530 nM
IC50 (HCT-116): 150 nM

CCN(CC)CCCOc1cc2nccc(Oc3c(F)cc(NC(=O)NN4C(=O)CSC4c4c(F)cccc4F)cc3F)c2cc1OC (stereo not given)
IC50 [3]: 3.8 µM
IC50 (BaF3 [1]): 94 nM
IC50 (BaF3 [2]): 220 nM
IC50 (HT-29): 140 nM
IC50 (HCT-116): 440 nM
